Values joined by “and” are separate entries in the source; they are usually repeats but may differ in a detail not shown here. Equal entries are not always repeated. Where two headings read alike, the source gives them in different places.
What was measured:
[1] = system: wounds of STZ-induced diabetic rats; test: Wound closure test in STZ-induced diabetic rats; assay type: in vivo, rat; details: mean ± SEM
Text: Approximately 8 weeks old, with body weight rages of 250 g to 300 g SD male rats were obtained from National Laboratory Animal Center, Taiwan. After 7 days of quarantine, the rats were moved until the body weight over 350 g. The rats were identified by ear notch of the animals. Each cage tag was labeled with the cage number, study number, sex and group name. The rats were housed 2 per cage in polycarbonate cage in the AAALAC accredited animal facility. […] Laboratory Rodent Diet 5001 (PMI® Nutrition International, Inc., MO, USA) were supplied ad libitum throughout the study period. Tap water was supplied ad libitum via bottles attached to the cages. Samples (test articles) were prepared according to Table 4. [table] CGS-21680: Specific adenosine A2A subtype receptor agonist, prepared by adding 1.67 mg of CGS-21680 in 248.4 g of cream base. Diabetic rats: The rats with body weight over 300 g were administrated with one dose of Streptozotocin (STZ, 65 mg/kg) by intravenous injection. The STZ-induced rats with high blood sugar (over 300 mg/dL) for 2 months were selected to conduct the wound closure test. Trauma surgeries for diabetic rats: The diabetic rats with weight lower than 300 g were eliminated and the rest were randomized into 6 groups. The rats were then anesthetized with pentobarbital and hairs on surgical area (dorsal area) were removed. […] Medication and wound closure measurement: The animals were weighed and the area of wounds was measured every other day for evaluation of wound closure. Medications were applied to each wound twice a day and the wounds were covered with cheesecloth. The hoods were worn on the necks of the rats to prevent the wounds from receiving animal scratches. […] When taking pictures, a standard ruler was placed beside the wounds. Before analyzing the wounds with Image pro (Media cybernetics), length was standardized with the standard ruler in the picture to avoid the errors caused by different picturing distances. Data analysis and statistics: Three wound areas on the rats' backs were analyzed by Image pro. The original wound areas were the areas of day zero. The original wound areas minus the wound areas at different time points and then divided by the original wound areas to get the wound closure percentages. The mean of three wound closure percentages of each rat represents the wound closure of each rat. The data was shown as mean±standard error (SEM). The p-values of the testing results were calculated by t-test in statistics software (SYSTAT, Systat software inc). P<0.05 means there is a significant difference, and it is marked with *. P<0.01 means there is a very significant difference, and it is marked with **. P<0.001 means there is an extremely significant difference, and it is marked with ***.

[2] = assay type: in vivo, nude mice
Description: Animal facility: Approximately 6 to 8 week-old BALB/cAnN.Cg-Foxn1^nu/CrlNarl female mice were obtained from National Laboratory Animal Center, Taiwan. The environment conditions were: temperature: 25±1° C.; humidity: 60±5%; independent air condition; controlled light cycle. Water and food was supplied ad libitum throughout the study period. The mice were housed according to the standard procedure of the laboratory animal committee.
Tumor-bearing mice induction: MDA-MB-231 cells (human breast cancer cells) were cultured until 5×10^6 cells, the cells required in injection of female nude mice were collected with trypsin, and resuspended in PBS solution for tumor induction. The tumor of nude mice was induced by subcutaneous injected with 100 μL of cell solution and released back into the cages to be a normal diet. When the tumor was about 300 mm^3, the mice were subjected to topical administration of different doses of the extract composition and grouping into CTX group and non-CTX group. The weight, appetite, blood sugar and tumor size growth were observed every week to assess the appearance of the normal physiological state of nude mice to understand the efficacy of the extract composition.
Grouping the tumor-bearing mice and treatment: When the tumor was about 300 mm^3, the mice were subjected to grouping as shown in Table 12. The chemotherapy drug (an injection a week) was administrated with the extract composition. The treating group was topically applied to the tumor area, skin around the tumor, and the whole back skin with the dosage of 0.1 g/day. After treatment for 5 weeks, the weight, appetite, blood sugar and tumor size growth of the nude mice were observed.
Clinical assessment of tumor-bearing mice: The physiological state and tumor size of the tumor-bearing mice were assessed including weight, appetite, blood sugar and tumor size. The tumor size was calculated according to: tumor volume (mm^3)=ab^2/2, to assess the tumor growth rate.

[3] = system: MDA-MB-231 (human breast cancer cells) tumor; test: Tumor growth in MDA-MB-231 tumor-bearing nude mice; assay type: in vivo; details: CTX one injection a week, test article topical 0.1 g/day
Text: Cell line and reagent: MDA-MB-231 (purchased from Food Industry Research and Development Institute, Taiwan); […] Animal facility: Approximately 6 to 8 week-old BALB/cAnN.Cg-Foxn1^nu/CrlNarl female mice were obtained from National Laboratory Animal Center, Taiwan. […] Water and food was supplied ad libitum throughout the study period. The mice were housed according to the standard procedure of the laboratory animal committee. Tumor-bearing mice induction: […] The weight, appetite, blood sugar and tumor size growth were observed every week to assess the appearance of the normal physiological state of nude mice to understand the efficacy of the extract composition. Grouping the tumor-bearing mice and treatment: […] The chemotherapy drug (an injection a week) was administrated with the extract composition. […] [table] Clinical assessment of tumor-bearing mice: The physiological state and tumor size of the tumor-bearing mice were assessed including weight, appetite, blood sugar and tumor size.

## CCNC(=O)[C@H]1O[C@@H](n2cnc3c(N)nc(NCCc4ccc(CCC(=O)O)cc4)nc32)[C@H](O)[C@@H]1O [CGS-21680]
[1]; Experimental 1, day 4, topical twice a day, CGS-21680 10 μg/wound
  wound closure percentage: 21.87±5.61% and 21.87 ± 5.61 *** %
[1]; Experimental 1, day 6, topical twice a day, CGS-21680 10 μg/wound
  wound closure percentage: 25.45 ± 4.46 *** %
[1]; Experimental 1, day 8, topical twice a day, CGS-21680 10 μg/wound
  wound closure percentage: 45.88 ± 4.28 *** %
[1]; Experimental 1, day 10, topical twice a day, CGS-21680 10 μg/wound
  wound closure percentage: 93.80 ± 2.79 *** %
[1]; Experimental 1, day 12, topical twice a day, CGS-21680 10 μg/wound
  wound closure percentage: 91.15 ± 2.72 ** %
[1]; Experimental 1, day 14, topical twice a day, CGS-21680 10 μg/wound
  wound closure percentage: 98.74 ± 0.60 ** %
[1]; Experimental 2, day 4, topical twice a day, CGS-21680 6.7 μg/wound
  wound closure percentage: 40.02 ± 5.03 ** %
[1]; Experimental 2, day 6, topical twice a day, CGS-21680 6.7 μg/wound
  wound closure percentage: 63.09 ± 2.58 *** %
[1]; Experimental 2, day 8, topical twice a day, CGS-21680 6.7 μg/wound
  wound closure percentage: 77.21 ± 2.44 *** %
[1]; Experimental 2, day 10, topical twice a day, CGS-21680 6.7 μg/wound
  wound closure percentage: 80.93 ± 2.08 *** %
[1]; Experimental 2, day 12, topical twice a day, CGS-21680 6.7 μg/wound
  wound closure percentage: 96.91 ± 1.08 *** %
[1]; Experimental 2, day 14, topical twice a day, CGS-21680 6.7 μg/wound
  wound closure percentage: 99.17 ± 0.54 *** %

## O=P1(N(CCCl)CCCl)NCCCO1 (centres unmarked) [CTX, cyclophosphamide]
[2]; 4/28
  average body weight: 19.64 g
[2]; 5/2
  average blood sugar: 113 dL
  average body weight: 20.04 g
[2]; 5/5
  average body weight: 18.46 g
[2]; 5/5~5/9
  average food intake: 4.89 g
[2]; 5/9
  average blood sugar: 93 dL
  average body weight: 19.00 g
[2]; 5/9~5/12
  average food intake: 5.61 g
[2]; 5/12
  average body weight: 19.51 g
[2]; 5/12~5/16
  average food intake: 5.38 g
[2]; 5/16
  average blood sugar: 109 dL
  average body weight: 20.99 g
[2]; 5/16~5/19
  average food intake: 5.21 g
[2]; 5/19
  average body weight: 20.42 g
[2]; 5/19~5/23
  average food intake: 4.70 g
[2]; 5/23
  average blood sugar: 122 dL
  average body weight: 21.16 g
[2]; 5/23~5/26
  average food intake: 4.76 g
[2]; 5/26
  average body weight: 20.21 g
[2]; 5/26~5/30
  average food intake: 5.22 g
[2]; 5/30
  average blood sugar: 108 dL
  average body weight: 22.18 g
[3]; 4/28
  tumor size elimination: 0.00 mm^3
[3]; 5/2
  tumor size elimination: 99.61 mm^3
[3]; 5/5
  tumor size elimination: 78.95 mm^3
[3]; 5/9
  tumor size elimination: −19.52 mm^3
[3]; 5/12
  tumor size elimination: −45.11 mm^3
[3]; 5/16
  tumor size elimination: −157.57 mm^3
[3]; 5/19
  tumor size elimination: −176.41 mm^3
[3]; 5/23
  tumor size elimination: −264.85 mm^3
[3]; 5/26
  tumor size elimination: −293.68 mm^3
[3]; 5/30
  tumor size elimination: −391.42 mm^3

— patent publication US20200289598A1, “SOYBEAN SEED EXTRACT, METHOD FOR PRODUCING THE SAME AND USES THEREOF” (CHARSIRE BIOTECHNOLOGY CORP., priority 2016, published 2020)
